Like-named read-outs stand apart in the source and are kept apart here.
Columns and labels:
[1] = biological target: T1, Recombinant BTK^WT kinase (Homo sapiens, UniProt Q06187); assay: BTK WT binding affinity (LanthaScreen TR-FRET); details: Kinase Tracer 236, 5 h incubation
T1 construct: purchased Invitrogen
Procedure: BTK^WT binding affinity of each compound tested was determined using a time-resolved fluorescence resonance energy transfer (TR-FRET) methodology. 2.5 nM Recombinant BTK^WT kinase, varying concentrations of inhibitor, 2 nM LanthaScreen™ Eu anti-His Antibody and 15 nM Kinase Tracer 236 was incubated in 1× LanthaScreen™ Kinase Buffer A for 5 h. Recombinant BTK kinase and all LanthaScreen™ components were purchased from Invitrogen. Measurements were performed in a reaction volume of 30 μL using half-area 96-well assay plates. The TR-FRET signal was read on a plate reader with an excitation wavelength of 340 nm and detection wavelengths of 615 and 665 nm. Binding affinity was determined for each compound by measuring TR-FRET signal at various concentrations of compound and plotting the relative fluorescence units against the inhibitor concentration to estimate the IC50 from log[Inhibitor] vs response using the Variable Slope model in Graphpad prism from Graphpad software (San Diego, Calif.).

[2] = biological target: T2, Recombinant BTK^C481S kinase (Homo sapiens, UniProt Q06187, C481S); assay: BTK C481S binding affinity (LanthaScreen TR-FRET); details: Kinase Tracer 236, 5 h incubation
T2 construct: purchased SignalChem
Procedure: BTK^C481S binding affinity of each compound tested was determined using a time-resolved fluorescence resonance energy transfer (TR-FRET) methodology. 5 nM Recombinant BTK^WT kinase, varying concentrations of inhibitor, 2 nM LanthaScreen™ Eu anti-His Antibody and 30 nM Kinase Tracer 236 was incubated in 1× LanthaScreen™ Kinase Buffer A for 5 h. Recombinant BTK^C481S kinase was purchased from SignalChem and all LanthaScreen™ components were purchased from Invitrogen. Measurements were performed in a reaction volume of 30 μL using half-area 96-well assay plates. The TR-FRET signal was read on a plate reader with an excitation wavelength of 340 nm and detection wavelengths of 615 and 665 nm. Binding affinity was determined for each compound by measuring TR-FRET signal at various concentrations of compound and plotting the relative fluorescence units against the inhibitor concentration to estimate the IC50 from log[Inhibitor] vs response using the Variable Slope model in Graphpad prism from Graphpad software (San Diego, Calif.).

Recombinant EGFR = biological target: T3, Recombinant EGFR (Homo sapiens, UniProt P00533); assay: EGFR binding affinity (LanthaScreen TR-FRET); details: Kinase Tracer 199, 5 h incubation
T3 construct: purchased Invitrogen
Procedure: EGFR binding affinity was determined using a time-resolved fluorescence resonance energy transfer (TR-FRET) methodology. […] Recombinant EGFR and all LanthaScreen™ components were purchased from Invitrogen. Measurements were performed in a reaction volume of 30 μL using half-area 96-well assay plates. […] Binding affinity was determined for each compound by measuring TR-FRET signal at various concentrations of compound and plotting the relative fluorescence units against the inhibitor concentration to estimate the IC50 from log[Inhibitor] vs response using the Variable Slope model in Graphpad prism from Graphpad software (San Diego, Calif.).

[3] = system: OCI-Ly10 human DLBCL cells; assay: OCI-Ly10 anti-proliferative activity (Resazurin); type: cell-based; details: OCI-Ly10 cells, 72 h compound treatment, Resazurin, read-out: Proliferation Assay OCI-Ly10-20% FBS
Procedure: Compounds were assayed for effects on the growth of OCI-Ly10 human DLBCL cells that are dependent on NFκB signalling. […] Cells were then plated at 7.5×10^3 cells per well in 96-well plates in varying concentrations of compound and incubated for 72 h at 37° C. An additional plate of cells to be used as the Day 0 read was seeded without compound addition, Resazurin was added to each well, incubated for 5 h and the fluorescence measured at 590 nm. After 72 h of compound treatment, Resazurin was added to each well of the compound treated plates, incubated for 5 h and the fluorescence measured at 590 nm. The IC50 was then calculated by subtracting the average Day 0 value from each well value from the treated plates, each treatment was then calculated as a percentage of the DMSO control and the percentages plotted against the inhibitor concentration to estimate the IC50 from log[Inhibitor] vs response using the Variable Slope model in Graphpad prism from Graphpad software (San Diego, Calif.).

T3 sequence (P00533 25-1210): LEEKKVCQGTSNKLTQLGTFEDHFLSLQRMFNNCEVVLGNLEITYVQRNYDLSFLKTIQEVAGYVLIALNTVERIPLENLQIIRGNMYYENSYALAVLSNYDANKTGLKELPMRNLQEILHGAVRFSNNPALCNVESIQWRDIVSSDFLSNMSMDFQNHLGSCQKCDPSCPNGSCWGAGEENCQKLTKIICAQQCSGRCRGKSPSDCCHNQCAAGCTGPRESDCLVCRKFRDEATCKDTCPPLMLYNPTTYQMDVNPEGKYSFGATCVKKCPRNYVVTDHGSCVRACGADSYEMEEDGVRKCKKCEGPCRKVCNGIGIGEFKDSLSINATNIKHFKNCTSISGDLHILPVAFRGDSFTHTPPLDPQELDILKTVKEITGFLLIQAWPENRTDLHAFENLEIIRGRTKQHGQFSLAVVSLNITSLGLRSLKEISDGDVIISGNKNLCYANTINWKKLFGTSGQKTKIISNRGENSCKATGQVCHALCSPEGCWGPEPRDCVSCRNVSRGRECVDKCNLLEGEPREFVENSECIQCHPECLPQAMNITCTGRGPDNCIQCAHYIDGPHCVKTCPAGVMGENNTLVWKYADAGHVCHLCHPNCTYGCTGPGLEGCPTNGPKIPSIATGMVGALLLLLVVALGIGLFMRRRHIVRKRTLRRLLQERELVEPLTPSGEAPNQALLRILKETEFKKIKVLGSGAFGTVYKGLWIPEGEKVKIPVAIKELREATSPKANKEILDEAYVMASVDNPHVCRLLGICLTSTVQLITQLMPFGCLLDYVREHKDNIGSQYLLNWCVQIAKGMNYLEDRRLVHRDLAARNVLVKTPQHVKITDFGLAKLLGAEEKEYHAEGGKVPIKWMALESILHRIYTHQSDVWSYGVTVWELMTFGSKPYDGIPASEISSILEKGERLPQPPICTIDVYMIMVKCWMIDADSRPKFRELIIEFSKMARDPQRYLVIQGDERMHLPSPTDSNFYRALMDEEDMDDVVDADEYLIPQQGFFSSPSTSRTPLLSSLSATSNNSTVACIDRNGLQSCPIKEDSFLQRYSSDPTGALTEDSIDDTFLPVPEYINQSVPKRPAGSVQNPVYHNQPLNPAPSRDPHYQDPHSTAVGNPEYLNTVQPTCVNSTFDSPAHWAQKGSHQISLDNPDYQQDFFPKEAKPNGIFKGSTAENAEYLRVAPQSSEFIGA
T2 sequence (Q06187 whole entry C481S): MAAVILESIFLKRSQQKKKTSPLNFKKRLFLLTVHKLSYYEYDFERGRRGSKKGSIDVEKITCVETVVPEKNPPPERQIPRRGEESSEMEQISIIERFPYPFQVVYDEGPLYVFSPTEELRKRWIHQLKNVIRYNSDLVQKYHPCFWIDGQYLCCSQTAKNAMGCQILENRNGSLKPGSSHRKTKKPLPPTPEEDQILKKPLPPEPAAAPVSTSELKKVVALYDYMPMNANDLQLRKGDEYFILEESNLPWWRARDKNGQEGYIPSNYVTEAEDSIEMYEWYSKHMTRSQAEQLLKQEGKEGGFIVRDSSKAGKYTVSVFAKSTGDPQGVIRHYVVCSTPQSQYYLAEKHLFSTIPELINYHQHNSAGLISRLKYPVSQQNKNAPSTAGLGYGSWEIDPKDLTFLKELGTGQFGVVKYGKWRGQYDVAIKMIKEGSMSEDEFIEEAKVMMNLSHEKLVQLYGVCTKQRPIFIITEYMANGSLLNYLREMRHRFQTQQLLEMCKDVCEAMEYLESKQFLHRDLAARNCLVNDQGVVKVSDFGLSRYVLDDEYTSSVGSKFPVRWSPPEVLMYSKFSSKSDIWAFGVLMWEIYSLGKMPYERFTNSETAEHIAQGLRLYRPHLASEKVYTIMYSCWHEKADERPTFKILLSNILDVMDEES
T1 sequence (Q06187 whole entry): as the sequence (Q06187 whole entry C481S) above, with S481C counted along it

SMILES	IC50 [1] [nM]	IC50 [2] [nM]	IC50 (Recombinant EGFR) [nM]	IC50 ([3]; Homo sapiens, OCI-Ly10, 72 h) [nM]	IC50 [3] [nM]
COc1ccccc1C(=O)NCc1ccc(-c2nn(C3CCC(OCc4ccccc4)CC3)c(N)c2C(N)=O)cc1 (mixture of isomers) [Example 28, 5-Amino-1-(4-benzyloxycyclohexyl)-3-[4-[[(2-methoxybenzoyl)amino]methyl]phenyl]pyrazole-4-carboxamide]	< 10	< 10	100 to 1000	10 to 100	
COc1ccccc1C(=O)NCc1ccc(-c2nn(C3CCC(C(=O)O)CC3)c(N)c2C(N)=O)cc1 (mixture of isomers) [Example 74, 4-[5-amino-4-carbamoyl-3-[4-[[(2-methoxybenzoyl)amino]methyl]phenyl]pyrazol-1-yl]cyclohexanecarboxylic acid]	< 10	< 10	100 to 1000	1000 to 10000	
CONC(=O)C1CCC(n2nc(-c3ccc(CNC(=O)c4ccccc4OC)cc3)c(C(N)=O)c2N)CC1 (mixture of isomers) [Example 75, 5-amino-3-[4-[[(2-methoxybenzoyl)amino]methyl]phenyl]-1-[4-(methoxycarbamoyl)cyclohexyl]pyrazole-4-carboxamide]	< 10	< 10	100 to 1000	100 to 1000	
COc1ccccc1C(=O)NCc1ccc(-c2nn(C3CCOC(C)C3)c(N)c2C(N)=O)cc1 (mixture of isomers) [Example 85, 5-amino-3-[4-[[(2-methoxybenzoyl)amino]methyl]phenyl]-1-(2-methyltetrahydropyran-4-yl)pyrazole-4-carboxamide]	< 10	< 10	100 to 1000	10 to 100	
COc1ccccc1C(=O)NCc1ccc(-c2nn(C3CCOCC3C)c(N)c2C(N)=O)cc1 (mixture of isomers) [Example 86, 5-amino-3-[4-[[(2-methoxybenzoyl)amino]methyl]phenyl]-1-(3-methyltetrahydropyran-4-yl)pyrazole-4-carboxamide]	< 10	< 10	100 to 1000	100 to 1000	
COc1ccc(F)cc1C(=O)NCc1ccc(-c2nn(C(C)C3CCOC3)c(N)c2C(N)=O)cc1 (mixture of isomers) [Example 172, 5-amino-3-[4-[[(5-fluoro-2-methoxy-benzoyl)amino]methyl]phenyl]-1-(1-tetrahydrofuran-3-ylethyl)pyrazole-4-carboxamide]	< 10	< 10	1000 to 10000	100 to 1000	
COc1ccc(F)cc1C(=O)NCc1ccc(-c2nn(C(C3CCOC3)C(F)(F)F)c(N)c2C(N)=O)cc1 (mixture of isomers) [Example 175, 5-amino-3-[4-[[(5-fluoro-2-methoxy-benzoyl)amino]methyl]phenyl]-1-(2,2,2-trifluoro-1-tetrahydrofuran-3-yl-ethyl)pyrazole-4-carboxamide]	10 to 100	10 to 100	1000 to 10000	100 to 1000	
COc1ccccc1C(=O)NCc1ccc(-c2nn([C@@H]3CCC[C@H]3O)c(N)c2C(N)=O)cc1 (relative stereo) [Example 2, 5-Amino-1-[(1R*,2R*)-2-hydroxycyclopentyl]-3-[4-[[(2-methoxybenzoyl)amino]methyl]phenyl]pyrazole-4-carboxamide]	< 10	< 10		100 to 1000	
COc1ccccc1C(=O)NCc1ccc(-c2nn([C@H]3CC[C@@H](O)C3)c(N)c2C(N)=O)cc1 (relative stereo) [Example 20, 5-Amino-1-[(1S*,3R*)-3-hydroxycyclopentyl]-3-[4-[[(2-methoxybenzoyl)amino]methyl]phenyl]pyrazole-4-carboxamide]	< 10	< 10	100 to 1000	10 to 100	
COc1ccccc1C(=O)NCc1ccc(-c2nn([C@H]3CC[C@H](Cl)C3)c(N)c2C(N)=O)cc1 (relative stereo) [Example 37, 5-amino-1-[(1S*,3S*)-3-chlorocyclopentyl]-3-[4-[[(2-methoxybenzoyl)amino]methyl]phenyl]pyrazole-4-carboxamide]	< 10	< 10	100 to 1000	10 to 100	
COc1ccccc1C(=O)NCc1ccc(-c2nn(C3CCC(C)(O)CC3)c(N)c2C(N)=O)cc1 (single isomer, unassigned) [Example 27, 5-Amino-1-(4-hydroxy-4-methyl-cyclohexyl)-3-[4-[[(2-methoxybenzoyl)amino]methyl]phenyl]pyrazole-4-carboxamide]	< 10		100 to 1000		10 to 100
COc1ccccc1C(=O)NCc1ccc(-c2nn(C[C@H]3CCCNC3)c(N)c2C(N)=O)cc1 [Example 42, 5-amino-3-[4-[[(2-methoxybenzoyl)amino]methyl]phenyl]-1-[[(3S)-3-piperidyl]methyl]pyrazole-4-carboxamide]	> 10000		> 10000		
COc1ccccc1C(=O)NCc1ccc(-c2nn(C3CCCC3)c(Nc3ccccc3)c2C(N)=O)cc1 [Example 56, 5-anilino-1-cyclopentyl-3-[4-[[(2-methoxybenzoyl)amino]methyl]phenyl]pyrazole-4-carboxamide]	100 to 1000	100 to 1000		1000 to 10000	
COc1ccccc1C(=O)NCc1ccc(-c2nn(-c3nc(C)cs3)c(N)c2C(N)=O)cc1 [Example 67, 5-amino-3-[4-[[(2-methoxybenzoyl)amino]methyl]phenyl]-1-(4-methylthiazol-2-yl)pyrazole-4-carboxamide]	100 to 1000				
CNC(=O)c1c(-c2ccc(CNC(=O)c3ccccc3OC)cc2)nn(C2CCCC2)c1N [Example 69, 5-amino-1-cyclopentyl-3-[4-[[(2-methoxybenzoyl)amino]methyl]phenyl]-N-methyl-pyrazole-4-carboxamide]	> 10000				
COc1ccccc1C(=O)NCc1c(F)cc(-c2nn(C3CCOCC3)c(N)c2C(N)=O)cc1F [Example 132, 5-amino-3-[3,5-difluoro-4-[[(2-methoxybenzoyl)amino]methyl]phenyl]-1-tetrahydropyran-4-yl-pyrazole-4-carboxamide]	100 to 1000	10 to 100	> 10000		
COc1ccc(F)cc1C(=O)NCc1c(F)cc(-c2nn(C3CCOCC3)c(N)c2C(N)=O)cc1F [Example 133, 5-amino-3-[3,5-difluoro-4-[[(5-fluoro-2-methoxy-benzoyl)amino]methyl]phenyl]-1-tetrahydropyran-4-yl-pyrazole-4-carboxamide]	100 to 1000	10 to 100	> 10000		
COc1ccccc1C(=O)NC(CO)c1ccc(-c2nn(C3CCCC3)c(N)c2C(N)=O)cc1C (stereo not shown) [Example 185, 5-amino-1-cyclopentyl-3-[4-[2-hydroxy-1-[(2-methoxybenzoyl)amino]ethyl]-3-methyl-phenyl]pyrazole-4-carboxamide]	1000 to 10000	1000 to 10000	1000 to 10000		
COc1ccc(F)cc1C(=O)NCc1ccc(-c2nn(C(C3CC3)C(F)(F)F)c(N)c2C(N)=O)cc1 (stereo not shown) [Example 188, 5-amino-1-(1-cyclopropyl-2,2,2-trifluoro-ethyl)-3-[4-[[(5-fluoro-2-methoxy-benzoyl)amino]methyl]phenyl]pyrazole-4-carboxamide]	< 10	< 10	1000 to 10000		
